Measurements as given in paper PMC6478719 (Communications Biology, 2019).
Where two headings read alike, the source gives them in different places.

Biological target: T1, Olfr73 (Mus musculus, UniProt Q920P2)
T1 construct: expressed in transfected cells; host or cells: Hana3A cells (HEK293T-derived), co-transfected with pRTP1S and pCRE-SEAP
T1 sequence (Q920P2 1-313): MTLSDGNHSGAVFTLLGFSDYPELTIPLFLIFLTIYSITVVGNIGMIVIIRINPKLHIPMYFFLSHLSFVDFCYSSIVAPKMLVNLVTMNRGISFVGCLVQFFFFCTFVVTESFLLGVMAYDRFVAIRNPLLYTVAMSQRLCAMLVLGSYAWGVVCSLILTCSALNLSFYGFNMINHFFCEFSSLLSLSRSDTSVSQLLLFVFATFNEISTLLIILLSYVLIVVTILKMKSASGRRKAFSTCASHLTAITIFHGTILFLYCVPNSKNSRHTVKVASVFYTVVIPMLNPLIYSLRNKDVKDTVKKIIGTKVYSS
Assay: SEAP reporter assay (cAMP signalling) of Olfr73 activation in Hana3A cells
Format: cell-based
Protocol: As described in detail elsewhere[16],[45],[47] HEK293T-derived Hana3A cells (provided by Prof. Matsunami, Duke University, USA) were grown in DMEM/F12 medium (Invitrogen, Netherlands) supplemented with 10% fetal calf serum (FCS) (Invitrogen, Netherlands), maintained under selective conditions with 1 μg/ml of puromycin (Sigma, Switzerland) and kept in the incubator at 37 °C and 5% CO2. Cells were transfected with plasmid DNA using Lipofectamine 2000 (Invitrogen, Netherlands).
The assays were performed as described in detail elsewhere[16],[45],[47] twenty hours before transfection Hana3A cells were seeded into 96 wells (Greiner, Germany) at a concentration of 3.5 × 10^6 cells per ml of medium. 75 ng of pRTP1S, 150 ng of the cAMP response element fused to the secreted alkaline phosphatase (pCRE-SEAP)[89] and either 75 ng of pOlfr73[47] or 75 ng of calf thymus DNA, used as a control, were co-transfected. Compounds to be tested (Sigma, Switzerland) were diluted in DMEM/F12 without FCS and added to the cells 7 h after transfection. Cells were incubated for 16 h at 37 °C in the incubator. For the SEAP reporter assay, the culture medium was mixed with an equal volume of 1 M diethanolamine-bicarbonate, pH 9.8, containing 20 mM para-nitrophenyl-phosphate (pNPP) (Sigma, Switzerland) and 1 mM MgCl2 (Sigma, Switzerland). Absorbance was measured at 410 nm using a multiwell absorbance plate reader (Molecular Devices, USA) at 1- to 4-min intervals for a period of 5 min to determine SEAP expression dependent pNPP hydrolysis rates (A410 /min). EC50 values were determined from dose-response curves fitting experimental data with the Hill equation using IGOR Pro software (WaveMetrics):
fx=f(max)/1+EC50/x^n f(x) is the background-corrected response signal at concentration x of the investigated ligand, f(max) the maximal, background-corrected amplitude of the response signal, EC50 the half maximal effective ligand concentration, and n the Hill coefficient. Experiments were performed in triplicate.

[1] = Supplementary Table 2, cellular assays, triplicate, n.a. = no active response, read-out: EC50
[2] = Fig. 4, newly found agonists A1-A17, read-out: EC50 (in brackets, Fig. 4)
[3] = EC50 (in brackets, Fig. 4), Fig. 4, newly found agonists A1-A17
[4] = EC50 (μM), Supplementary Table 2, cellular assays, triplicate, n.a. = no active response

Structure (SMILES) | EC50 [1] | EC50 [4] | other results
COc1cc(C(C)(C)C)ccc1O [A4, 4-tert-butyl-2-methoxyphenol] | 55.6 ± 0.7 µM | – | EC50 [2]: 56 µM
Oc1ccc(C2CCCCC2)cc1 [A3, 4-cydohexyl-phenol] | – | 50.8 ± 0.5 µM | EC50 [3]: 51 µM
COc1cc2ccccc2cc1OC [A10, 2,3-dimethoxynaphthalene] | 120 ± 1 µM | – | –
CC/C=C/c1ccc(OC)c(OC)c1 [A8, (E)-4-(but-1-en-1-yl)-1,2-dimethoxybenzene] | – | 92.5 ± 0.9 µM | EC50 [3]: 93 µM
CCOC(=O)c1ccc(O)c(OC)c1 [A16, ethylvanillate] | – | 505 ± 109 µM | –
CCC(=O)c1ccc(O)cc1 [A15, 4-hydroxypropiophenone] | 502 ± 315 µM | – | –
CCCc1ccc(O)c(OC)c1 [A5, dihydroeugenol] | – | 61 ± 6.9 µM | –
CC(C)Cc1ccc(O)cc1 [A1, p-isobutylphenol] | 12.9 ± 0.9 µM | – | EC50 [2]: 13 µM; agonist activity at Olfr73 (SEAP signal) (Hana3A cells, compounds predicted from virtual screening): most potent ligand
C=CCc1cc(C(C)=O)ccc1O [A9, 1-(3-allyl-4-hydroxyphenyl)-ethanone] | – | 96.9 ± 1.7 µM | EC50 [3]: 97 µM

The next lines start with results.

EC50 [1] | Structure (SMILES) | EC50 [4] | other results
627 ± 62 µM | CC(C)=C[C@H]1C[C@H](C)CCO1 [A17, (2R,4R)-4-methyl-2-(2-methylprop-1-en-1-yl)-tetrahydro-2H-pyran] | – | –
88.4 ± 1.3 µM | COc1cc2c(cc1OC)CCCC2 [A7, 6,7-dimethoxy-1,2,3,4-tetrahydronaphthalene] | – | EC50 [2]: 88 µM
16 ± 1.5 µM | CC(=O)c1cc(C)c(O)cc1C [A2, 2’,5’-dimethyl -4’hydroxyacetophenone] | – | –
193 ± 3 µM | C/C=C/c1ccc(OCC)c(OC)c1 [A11, isoeugenylethylether] | – | –
63.1 ± 1.5 µM | CCCCCC1CCC(=O)CC1 [A6, 4-pentylcyclohexanone] | – | EC50 [2]: 63 µM
250 ± 3 µM | CC(=O)c1cc(C)c(O)c(C)c1 [A13, 4-hydroxy-3,5-dimethylacetophenone] | – | –
